The numbers were not newly measured in patent publication US9642861B2, “Methods of treating oral mucositis” (priority 2006, dated 2017), which cites them from elsewhere.

Data set [1] relates to animal model of rheumatoid arthritis. Particulars: rat, in vivo; cited from earlier work.
Data set [2] has as its system animal models of inflammation. Particulars: in vivo; cited from earlier work.

On to `[Cl-].[Cl-].[Mn+2].c1cc2nc(c1)CN[C@@H]1CCCC[C@H]1NCCN[C@@H]1CCCC[C@H]1NC2` [M40403], for which the “efficacy in an animal model of rheumatoid arthritis” value in data set [1] is “effective”. For the same molecule, the “efficacy in animal models of inflammation” value in data set [2] is on record as “effective”.
